According to US10273242B2, “Compound inhibiting activities of BTK and/or JAK3 kinases” (BEIJING HANMI PHARMACEUTICAL CO., LTD., priority 2013, dated 2019):
pIC50: −log10 of the molar value.

Legend:
DBA/1J mice = assay: Type II collagen-induced arthritis (CIA) model in DBA/1J mice; type: in vivo; settings: 3 mg/kg and 10 mg/kg orally once a day for 14 days
Description: The CIA model is a widely-used animal model in the study of drugs for the treatment of rheumatoid arthritis in human. The experimental animals used in this experiment are DBA/1J mice (male, 6 to 8 weeks of age, purchased from Shanghai Silaike Laboratroy Animal Co., Ltd., China). Mice were housed in an IVC system.
In order to induce the mice CIA model, a bovine type II collagen (CII) (purchased from Chondrex company, No.: 20022) solution was emulsified with the same volume of complete Freund's adjuvant (CFA) (purchased from Sigma-Aldrich, No.: F5881) using an electronic homogenizer to prepare an emulsion. Then, 70 μL of the prepared emulsion was intradermally injected into the base of the tail of the mice as a primary immunization. Three weeks after the primary immunization, one booster immunization was carried out. […] According to the following criteria, Mice were evaluated for the severity of arthritis using an established scoring system ranging from 0 to 4 (0 score: no evidence of edema or swelling; 1 score: mild edema and redness confined to the ankle joint or tarsal; 2 scores: mild edema and redness, from the ankle joint to the tarsal; 3 scores: moderate edema and redness, from the ankle joint to the metatarsal; and 4 scores: severe edema and redness, from the ankle to the whole instep and toes, or ankylosis of the ankle or wrist joints). […]

BTK kinase = molecular target: T1, BTK kinase (Homo sapiens, UniProt Q06187); assay: BTK kinase activity inhibition assay (ADP-Glo); type: biochemical; settings: ATP 50 μM
T1 construct: purchased Invitrogen PV3363
Protocol: The BTK kinase (purchased from Invitrogen, No.: PV3363) was diluted with reaction buffer (40 mM Tris-HCl, pH 7.5; 20 mM MgCl2, 0.1 mg/ml BSA; 1 mM DTT; 2 mM MnCl2) to 2 times of the final concentration (which is 1.1 ng/μL) and added with 5 μL/well to a 96-well plate. The compounds of the present invention were serial diluted with deionized water to four times (i.e., 40 μM, 4 μM, 0.4 μM, 80 nM, 16 nM, 3.2 nM, respectively) of the final concentrations (10 μM, 1 μM, 0.1 μM, 20 nM, 4 nM, 0.8 nM, respectively), and added at 2.5 μL/well to the test wells of the 96-well plate. After incubation at 25° C. for 10 minutes, ATP (50 μM) (purchased from Promega, No.: V9102) and 0.2 μg/μL of Poly E4Y1 (purchased from Sigma, No.: P0275-25MG) were added with 2.5 μL/well and incubated at 25° C. for 120 minutes. After the reaction was completed, 10 μL of the ADP-Glo reagent (ADP-Glo™ kinase assay kit, purchased from Promega, No.: V9102) was added to each well, and reacted at 25° C. for 40 minutes. Then 20 μL of the ADP-Glo kinase detection reagent was added to each well and reacted at 25° C. for 30 minutes. The kinase activity was detected by luminescence using the ADP-Glo kinase assay kit according to the manufacture's instruction, and IC50 values of the compounds of the present invention were calculated.

T1 sequence (Q06187 whole entry): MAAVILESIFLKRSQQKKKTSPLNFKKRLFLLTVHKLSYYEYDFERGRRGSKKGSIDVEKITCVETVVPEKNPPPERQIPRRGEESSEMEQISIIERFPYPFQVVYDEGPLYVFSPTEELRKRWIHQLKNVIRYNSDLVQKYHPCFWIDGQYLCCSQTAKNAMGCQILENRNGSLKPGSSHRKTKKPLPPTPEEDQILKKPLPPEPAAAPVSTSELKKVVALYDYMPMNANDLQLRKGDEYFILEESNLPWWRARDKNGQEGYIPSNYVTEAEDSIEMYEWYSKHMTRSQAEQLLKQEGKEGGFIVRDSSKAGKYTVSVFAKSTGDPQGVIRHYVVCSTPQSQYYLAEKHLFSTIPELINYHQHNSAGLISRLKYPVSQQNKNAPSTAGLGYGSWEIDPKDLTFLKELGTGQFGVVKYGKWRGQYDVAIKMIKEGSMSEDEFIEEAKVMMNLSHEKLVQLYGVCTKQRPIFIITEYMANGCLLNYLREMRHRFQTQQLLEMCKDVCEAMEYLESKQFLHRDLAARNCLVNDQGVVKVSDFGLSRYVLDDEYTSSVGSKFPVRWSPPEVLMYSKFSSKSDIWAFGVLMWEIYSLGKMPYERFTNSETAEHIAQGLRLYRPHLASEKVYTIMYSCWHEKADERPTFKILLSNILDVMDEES

With `C=CC(=O)N1CC[C@@H](Nc2nc(Nc3cc(C)ns3)nc3ccsc23)C1` [Example 132, (R)-1-(3-((2-((3-methyl-isothiazol-5-yl)amino)thieno[3,2-d]pyrimidin-4-yl)amino)pyrrolidin-1-yl)prop-2-en-1-one] the “therapeutic effect on arthritis (arthritis severity scores)” value (DBA/1J mice) was “good therapeutic effect on arthritis in the CIA model at the designed doses in a dose dependent manner” and the pIC50 (BTK kinase) was ≥ 7.30.
